From article PMC7259601 (PLoS ONE, 2020)

Experiments:
[1] = target: T1, PAR1 (h) (agonist radioligand) (Homo sapiens, UniProt P25116); test: CEREP Diversity Panel; format: binding
T1 construct: purchased CEREP (Eurofins Cerep)
Procedure: (§1) […]. MAO-A inhibition at 10 μM was 37%, in line with internal data.

[2] = target: T2, CRF1 (h) (agonist radioligand) (Homo sapiens, UniProt P34998); test: CEREP Diversity Panel; format: binding
T2 construct: purchased CEREP (Eurofins Cerep)
Procedure: as §1

[3] = target: T3, dopamine transporter (h) (antagonist radioligand) (Homo sapiens, UniProt Q01959); test: CEREP Diversity Panel; format: binding
T3 construct: purchased CEREP (Eurofins Cerep)
Procedure: as §1

[4] = target: T4, beta 2 (h) (agonist radioligand) (Homo sapiens, UniProt P07550); test: CEREP Diversity Panel; format: binding
T4 construct: purchased CEREP (Eurofins Cerep)
Procedure: as §1

[5] = target: T5, BLT1 (LTB4) (h) (agonist radioligand) (Homo sapiens, UniProt Q15722); test: CEREP Diversity Panel; format: binding
T5 construct: purchased CEREP (Eurofins Cerep)
Procedure: as §1

[6] = target: T6, PPARg (h) (agonist radioligand) (Homo sapiens, UniProt P37231); test: CEREP Diversity Panel; format: binding
T6 construct: purchased CEREP (Eurofins Cerep)
Procedure: as §1

[7] = target: T7, ETA (h) (agonist radioligand) (Homo sapiens, UniProt P25101); test: CEREP Diversity Panel; format: binding
T7 construct: purchased CEREP (Eurofins Cerep)
Procedure: as §1

[8] = target: T8, MC4 (h) (agonist radioligand) (Homo sapiens, UniProt P32245); test: CEREP Diversity Panel; format: binding
T8 construct: purchased CEREP (Eurofins Cerep)
Procedure: as §1

[9] = target: T9, B2 (h) (agonist radioligand) (Homo sapiens, UniProt P30411); test: CEREP Diversity Panel; format: binding
T9 construct: purchased CEREP (Eurofins Cerep)
Procedure: as §1

[10] = target: T10, CCK2 (CCKB) (h) (agonist radioligand) (Homo sapiens, UniProt P32239); test: CEREP Diversity Panel; format: binding
T10 construct: purchased CEREP (Eurofins Cerep)
Procedure: as §1

[11] = target: T11, N neuronal a 4b 2 (h) (agonist radioligand) (Homo sapiens, UniProt P17787+P43681); test: CEREP Diversity Panel; format: binding
T11 construct: purchased CEREP (Eurofins Cerep)
Procedure: as §1

[12] = target: T12, CB1 (h) (agonist radioligand) (Homo sapiens, UniProt P21554); test: CEREP Diversity Panel; format: binding
T12 construct: purchased CEREP (Eurofins Cerep)
Procedure: as §1

[13] = target: T13, NK2 (h) (agonist radioligand) (Homo sapiens, UniProt P21452); test: CEREP Diversity Panel; format: binding
T13 construct: purchased CEREP (Eurofins Cerep)
Procedure: as §1

[14] = target: T14, D1 (h) (antagonist radioligand) (Homo sapiens, UniProt P21728); test: CEREP Diversity Panel; format: binding
T14 construct: purchased CEREP (Eurofins Cerep)
Procedure: as §1

[15] = target: T15, IP (PGI2) (h) (agonist radioligand) (Homo sapiens, UniProt P43119); test: CEREP Diversity Panel; format: binding
T15 construct: purchased CEREP (Eurofins Cerep)
Procedure: as §1

[16] = target: T16, A3 (h) (agonist radioligand) (Homo sapiens, UniProt P0DMS8); test: CEREP Diversity Panel; format: binding
T16 construct: purchased CEREP (Eurofins Cerep)
Procedure: as §1

[17] = target: T17, PR (h) (agonist radioligand) (Homo sapiens, UniProt P06401); test: CEREP Diversity Panel; format: binding
T17 construct: purchased CEREP (Eurofins Cerep)
Procedure: as §1

[18] = target: T18, NOP (ORL1) (h) (agonist radioligand) (Homo sapiens, UniProt P41146); test: CEREP Diversity Panel; format: binding
T18 construct: purchased CEREP (Eurofins Cerep)
Procedure: as §1

[19] = target: T19, A2A (h) (agonist radioligand) (Homo sapiens, UniProt P29274); test: CEREP Diversity Panel; format: binding
T19 construct: purchased CEREP (Eurofins Cerep)
Procedure: as §1

[20] = target: T20, B1 (h) (agonist radioligand) (Homo sapiens, UniProt P46663); test: CEREP Diversity Panel; format: binding
T20 construct: purchased CEREP (Eurofins Cerep)
Procedure: as §1

[21] = target: T21, D3 (h) (antagonist radioligand) (Homo sapiens, UniProt P35462); test: CEREP Diversity Panel; format: binding
T21 construct: purchased CEREP (Eurofins Cerep)
Procedure: as §1

[22] = target: T22, CysLT1 (LTD4) (h) (agonist radioligand) (Homo sapiens, UniProt Q9Y271); test: CEREP Diversity Panel; format: binding
T22 construct: purchased CEREP (Eurofins Cerep)
Procedure: as §1

[23] = target: T23, H2 (h) (antagonist radioligand) (Homo sapiens, UniProt P25021); test: CEREP Diversity Panel; format: binding
T23 construct: purchased CEREP (Eurofins Cerep)
Procedure: as §1

[24] = target: T24, H1 (h) (antagonist radioligand) (Homo sapiens, UniProt P35367); test: CEREP Diversity Panel; format: binding
T24 construct: purchased CEREP (Eurofins Cerep)
Procedure: as §1

[25] = target: T25, TRH1 (h) (agonist radioligand) (Homo sapiens, UniProt P34981); test: CEREP Diversity Panel; format: binding
T25 construct: purchased CEREP (Eurofins Cerep)
Procedure: as §1

[26] = target: T26, D2S (h) (antagonist radioligand) (Homo sapiens, UniProt P14416); test: CEREP Diversity Panel; format: binding
T26 construct: purchased CEREP (Eurofins Cerep)
Procedure: as §1

[27] = target: T27, 5-HT transporter (h) (antagonist radioligand) (Homo sapiens, UniProt P31645); test: CEREP Diversity Panel; format: binding
T27 construct: purchased CEREP (Eurofins Cerep)
Procedure: as §1

SAMP8 mice = test: Open Field (OF); format: in vivo, mouse; details: 0.32 or 0.96 mg/kg/day
Procedure: Both male and female mice from the senescence accelerated strain SAMP8 and its control SAMR1 of different ages (see Table S3 for details) were used in these studies. Mice were breed in the animal facilities of the Pharmacy Faculty (University of Barcelona), maintained in a at 22 ± 2 °C controlled temperature in a 12 hr light / dark cycle (lights on at 8:00 am; 300 lux/0 lux) with ad libitum access to food (2018 TEKLAD, Harlan) and water. Male mice were housed individually (males) or in groups of 4-5 animals (females) in plastic colony boxes with a sawdust bedding material. […] SAMR1 mice treated with vehicle were included as a control. […] Drug concentration was calculated weekly in function of body weight and corrected in function of drinking water consumption. Cognitive function was evaluated by NORT, social behavior was evaluated by RI and anxiety and motor function were evaluated by EPM and OF. […]
A 50 × 50-cm white plastic arena with 25-cm-high walls was used to analyze spontaneous exploratory behavior. […] The movements of each animal were video recorded during 5 min. Locomotor activity was analyzed by video-tracking over the captured images using SMART® (v 2.5.21 (rat) or v3.0 (mice), PanLab, SLU, Spain).
Novel Object Recognition Test (NORT): Time exploring the novel (NO) and the familiar object (FO) was measured and a discrimination Index (DI) was defined as (NO-FO)/(NO+FO). […]

T7 sequence (P25101 21-427): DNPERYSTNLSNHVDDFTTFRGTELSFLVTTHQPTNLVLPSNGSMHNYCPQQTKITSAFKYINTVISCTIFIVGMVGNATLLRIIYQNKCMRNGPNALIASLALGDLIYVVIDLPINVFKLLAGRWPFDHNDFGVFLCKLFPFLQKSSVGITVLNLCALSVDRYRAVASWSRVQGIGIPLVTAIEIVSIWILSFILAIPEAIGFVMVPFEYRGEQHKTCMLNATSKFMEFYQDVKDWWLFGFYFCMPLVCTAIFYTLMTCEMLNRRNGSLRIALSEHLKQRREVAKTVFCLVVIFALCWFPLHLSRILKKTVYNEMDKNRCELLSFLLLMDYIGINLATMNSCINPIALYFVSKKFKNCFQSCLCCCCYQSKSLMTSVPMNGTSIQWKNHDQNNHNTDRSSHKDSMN
T12 sequence (P21554 whole entry): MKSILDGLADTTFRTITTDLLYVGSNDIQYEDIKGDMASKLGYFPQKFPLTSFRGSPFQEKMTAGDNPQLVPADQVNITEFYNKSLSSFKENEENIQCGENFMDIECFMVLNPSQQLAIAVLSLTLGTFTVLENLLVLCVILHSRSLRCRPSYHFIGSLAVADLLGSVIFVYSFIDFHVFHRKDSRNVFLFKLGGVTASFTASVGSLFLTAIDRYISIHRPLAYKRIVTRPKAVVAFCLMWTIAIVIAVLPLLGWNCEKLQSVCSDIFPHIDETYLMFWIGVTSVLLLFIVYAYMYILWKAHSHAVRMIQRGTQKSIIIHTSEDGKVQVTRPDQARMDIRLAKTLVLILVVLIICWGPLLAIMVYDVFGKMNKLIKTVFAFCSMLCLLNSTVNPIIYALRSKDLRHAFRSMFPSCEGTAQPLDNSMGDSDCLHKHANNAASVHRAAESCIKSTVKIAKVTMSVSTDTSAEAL
T8 sequence (P32245 whole entry): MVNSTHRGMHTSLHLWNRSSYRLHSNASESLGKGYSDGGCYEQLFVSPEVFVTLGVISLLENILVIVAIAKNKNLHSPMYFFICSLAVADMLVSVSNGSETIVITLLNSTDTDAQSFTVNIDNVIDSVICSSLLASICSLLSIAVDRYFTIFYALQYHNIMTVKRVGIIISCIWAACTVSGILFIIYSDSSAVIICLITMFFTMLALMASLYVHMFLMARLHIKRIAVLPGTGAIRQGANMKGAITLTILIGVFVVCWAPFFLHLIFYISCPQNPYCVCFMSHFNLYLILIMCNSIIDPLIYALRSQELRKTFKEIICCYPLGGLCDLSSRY
T17 sequence (P06401 whole entry): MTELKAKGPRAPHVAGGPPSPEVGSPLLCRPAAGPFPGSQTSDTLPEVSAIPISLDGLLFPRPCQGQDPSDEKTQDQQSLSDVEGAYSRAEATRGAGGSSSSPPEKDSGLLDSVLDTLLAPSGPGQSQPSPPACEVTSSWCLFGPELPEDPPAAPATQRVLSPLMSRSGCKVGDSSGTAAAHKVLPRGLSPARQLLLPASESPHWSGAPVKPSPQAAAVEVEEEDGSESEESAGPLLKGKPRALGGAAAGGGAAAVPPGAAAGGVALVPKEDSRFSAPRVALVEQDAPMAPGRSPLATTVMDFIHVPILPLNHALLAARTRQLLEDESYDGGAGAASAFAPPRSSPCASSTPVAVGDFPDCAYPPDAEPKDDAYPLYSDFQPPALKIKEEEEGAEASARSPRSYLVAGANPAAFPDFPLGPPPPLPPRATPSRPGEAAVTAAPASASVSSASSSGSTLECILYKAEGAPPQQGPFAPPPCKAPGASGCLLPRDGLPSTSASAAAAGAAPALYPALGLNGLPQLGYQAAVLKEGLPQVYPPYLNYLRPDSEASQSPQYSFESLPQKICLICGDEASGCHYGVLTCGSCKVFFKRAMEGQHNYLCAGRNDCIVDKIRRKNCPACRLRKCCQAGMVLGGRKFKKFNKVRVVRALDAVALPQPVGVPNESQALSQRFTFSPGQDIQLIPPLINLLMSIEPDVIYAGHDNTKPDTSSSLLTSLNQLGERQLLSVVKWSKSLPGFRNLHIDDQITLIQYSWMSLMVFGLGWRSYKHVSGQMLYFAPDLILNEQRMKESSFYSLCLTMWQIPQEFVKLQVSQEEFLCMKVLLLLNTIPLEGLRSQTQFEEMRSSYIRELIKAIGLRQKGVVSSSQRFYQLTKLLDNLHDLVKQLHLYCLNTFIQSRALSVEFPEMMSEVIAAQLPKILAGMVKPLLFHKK
T2 sequence (P34998 24-415): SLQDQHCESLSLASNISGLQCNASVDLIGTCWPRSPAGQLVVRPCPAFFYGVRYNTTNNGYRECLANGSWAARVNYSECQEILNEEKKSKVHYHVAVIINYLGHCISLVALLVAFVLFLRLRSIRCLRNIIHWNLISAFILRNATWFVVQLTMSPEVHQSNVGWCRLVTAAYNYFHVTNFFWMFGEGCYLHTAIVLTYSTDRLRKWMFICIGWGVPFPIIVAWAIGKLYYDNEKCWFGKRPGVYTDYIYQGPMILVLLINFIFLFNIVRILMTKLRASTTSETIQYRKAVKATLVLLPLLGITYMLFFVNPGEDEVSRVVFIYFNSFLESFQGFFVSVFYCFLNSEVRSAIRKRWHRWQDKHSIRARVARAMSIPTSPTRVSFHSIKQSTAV
T5 sequence (Q15722 whole entry): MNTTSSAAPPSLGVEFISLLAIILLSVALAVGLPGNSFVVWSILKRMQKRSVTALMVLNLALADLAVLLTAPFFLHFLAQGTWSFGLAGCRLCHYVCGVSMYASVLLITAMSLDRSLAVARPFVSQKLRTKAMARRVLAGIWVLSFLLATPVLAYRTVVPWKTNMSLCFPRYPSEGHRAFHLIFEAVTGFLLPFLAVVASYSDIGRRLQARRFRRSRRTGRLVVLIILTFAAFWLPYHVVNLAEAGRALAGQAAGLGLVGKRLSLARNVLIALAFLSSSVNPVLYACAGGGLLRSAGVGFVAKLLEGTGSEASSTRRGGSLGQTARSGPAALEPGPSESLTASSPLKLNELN
T27 sequence (P31645 whole entry): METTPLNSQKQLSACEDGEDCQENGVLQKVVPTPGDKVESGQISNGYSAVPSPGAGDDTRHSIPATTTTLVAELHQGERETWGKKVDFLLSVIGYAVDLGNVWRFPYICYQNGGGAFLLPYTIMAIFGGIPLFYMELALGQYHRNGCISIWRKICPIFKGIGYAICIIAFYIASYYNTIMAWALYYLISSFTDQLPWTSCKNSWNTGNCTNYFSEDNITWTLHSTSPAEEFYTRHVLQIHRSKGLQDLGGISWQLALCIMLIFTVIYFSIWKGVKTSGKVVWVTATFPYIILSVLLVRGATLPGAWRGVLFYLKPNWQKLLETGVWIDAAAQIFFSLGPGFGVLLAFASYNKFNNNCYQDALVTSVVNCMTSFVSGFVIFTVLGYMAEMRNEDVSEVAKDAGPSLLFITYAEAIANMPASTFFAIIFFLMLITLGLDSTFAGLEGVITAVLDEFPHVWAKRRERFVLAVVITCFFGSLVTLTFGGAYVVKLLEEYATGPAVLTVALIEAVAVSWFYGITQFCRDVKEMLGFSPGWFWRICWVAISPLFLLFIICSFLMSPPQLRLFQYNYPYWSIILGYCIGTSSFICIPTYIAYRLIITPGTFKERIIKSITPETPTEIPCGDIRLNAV
T22 sequence (Q9Y271 whole entry): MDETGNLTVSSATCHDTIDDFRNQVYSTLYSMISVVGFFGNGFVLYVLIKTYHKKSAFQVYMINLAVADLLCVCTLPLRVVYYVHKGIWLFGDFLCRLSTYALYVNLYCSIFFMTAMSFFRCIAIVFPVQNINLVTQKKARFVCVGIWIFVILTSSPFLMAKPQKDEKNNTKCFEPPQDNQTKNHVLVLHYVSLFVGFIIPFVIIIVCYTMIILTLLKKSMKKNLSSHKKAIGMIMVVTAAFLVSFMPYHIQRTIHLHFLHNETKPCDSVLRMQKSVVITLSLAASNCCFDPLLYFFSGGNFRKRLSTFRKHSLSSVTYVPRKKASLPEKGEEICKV
T21 sequence (P35462 whole entry): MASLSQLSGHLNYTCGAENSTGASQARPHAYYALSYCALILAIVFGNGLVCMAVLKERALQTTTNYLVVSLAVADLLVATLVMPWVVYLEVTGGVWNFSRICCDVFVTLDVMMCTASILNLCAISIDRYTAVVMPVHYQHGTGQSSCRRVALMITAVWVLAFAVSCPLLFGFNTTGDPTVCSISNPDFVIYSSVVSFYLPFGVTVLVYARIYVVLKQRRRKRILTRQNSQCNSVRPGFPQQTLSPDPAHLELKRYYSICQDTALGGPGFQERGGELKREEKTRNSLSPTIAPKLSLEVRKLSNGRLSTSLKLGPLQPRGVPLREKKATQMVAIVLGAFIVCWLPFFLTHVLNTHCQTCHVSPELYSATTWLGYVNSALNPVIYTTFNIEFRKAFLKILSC
T4 sequence (P07550 whole entry): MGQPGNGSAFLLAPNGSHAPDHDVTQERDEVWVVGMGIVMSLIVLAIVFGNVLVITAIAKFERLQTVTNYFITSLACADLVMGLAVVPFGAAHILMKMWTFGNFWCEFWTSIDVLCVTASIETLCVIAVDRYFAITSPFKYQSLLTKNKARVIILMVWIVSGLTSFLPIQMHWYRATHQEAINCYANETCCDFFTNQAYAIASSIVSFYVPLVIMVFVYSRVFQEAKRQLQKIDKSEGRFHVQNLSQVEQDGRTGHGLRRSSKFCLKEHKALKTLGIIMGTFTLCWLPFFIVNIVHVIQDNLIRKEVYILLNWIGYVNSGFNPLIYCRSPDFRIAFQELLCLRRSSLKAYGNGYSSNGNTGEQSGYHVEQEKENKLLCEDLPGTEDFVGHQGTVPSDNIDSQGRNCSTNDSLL

How did the inhibition at 10 µM [1] turn out when `Nc1nnc(CN[C@@H]2C[C@H]2c2ccc(OCc3ccccc3)cc2)o1` [ORY-2001, vafidemstat] was run?
Its inhibition at 10 µM is -2%.

And the inhibition at 10 µM [2]?
Its inhibition at 10 µM is 18%.

And the inhibition at 10 µM [3]?
The inhibition at 10 µM was 33%.

What about the inhibition at 10 µM [4] of the same compound?
Its inhibition at 10 µM is 5%.

What about the inhibition at 10 µM [5] of the same compound?
The inhibition at 10 µM was 33%.

What about the inhibition at 10 µM [6] of the same compound?
The inhibition at 10 µM was 4%.

And the inhibition at 10 µM [7]?
Its inhibition at 10 µM is -23%.

What about the inhibition at 10 µM [8] of the same compound?
The inhibition at 10 µM was 7%.

What about the inhibition at 10 µM [9] of the same compound?
Its inhibition at 10 µM is -5%.

What about the inhibition at 10 µM [10] of the same compound?
Its inhibition at 10 µM is -15%.

And the inhibition at 10 µM [11]?
Its inhibition at 10 µM is -3%.

And the inhibition at 10 µM [12]?
The inhibition at 10 µM was 5%.

What about the inhibition at 10 µM [13] of the same compound?
Its inhibition at 10 µM is 2%.

What about the inhibition at 10 µM [14] of the same compound?
The inhibition at 10 µM was -5%.

And the inhibition at 10 µM [15]?
Its inhibition at 10 µM is 31%.

And the inhibition at 10 µM [16]?
The inhibition at 10 µM was -4%.

And the inhibition at 10 µM [17]?
Its inhibition at 10 µM is -11%.

And the inhibition at 10 µM [18]?
Its inhibition at 10 µM is 0%.

What about the inhibition at 10 µM [19] of the same compound?
The inhibition at 10 µM was -8%.

What about the inhibition at 10 µM [20] of the same compound?
Its inhibition at 10 µM is -1%.

What about the inhibition at 10 µM [21] of the same compound?
Its inhibition at 10 µM is 8%.

And the inhibition at 10 µM [22]?
Its inhibition at 10 µM is 4%.

And the inhibition at 10 µM [23]?
The inhibition at 10 µM was -3%.

And the inhibition at 10 µM [24]?
Its inhibition at 10 µM is -9%.

What about the inhibition at 10 µM [25] of the same compound?
The inhibition at 10 µM was 3%.

What about the inhibition at 10 µM [26] of the same compound?
Its inhibition at 10 µM is -8%.

And the inhibition at 10 µM [27]?
Its inhibition at 10 µM is 2%.

And the “locomotor activity in the OF test” value (SAMP8 mice)?
The value was “no significant genotype or treatment differences”.
